How the values were obtained:
healthy participants = assay: Example 2: safety in healthy participants; type: in vivo, human
Description: The study comprises a screening period of maximum 28 days, and five periods during which subjects will participate from Day −1 of Period 1 to 72 hours after the AZD5055 dose in Period 5.
Period 1: On Day 1, the subjects will receive either 5 mg AZD5055 as a 20-minute IV infusion (Treatment A) in an overnight fasted state or AZD5055 20 mg as oral suspension (Treatment B) in an overnight fasted state.
Period 2: On Day 1 (Study Day 4), the subjects will receive 20 mg AZD5055 film-coated tablet (Treatment C) in an overnight fasted state.
Period 3: On Day 1 (Study Day 8) the subjects will receive a standardized high-fat breakfast 30 minutes before 20 mg AZD5055 administered as film-coated tablet (Treatment D).
Period 4: On Study Day 10, three days prior to Day 1, 20 mg rabeprazole will be administered twice daily. On Day 1 (Study Day 13), 20 mg AZD5055 film-coated tablet will be administered together with rabeprazole and rabeprazole dosing will continue twice daily (Treatment E).
Period 5: On Day 1 (Study Day 17) the participants will receive a low-fat breakfast 30 minutes before 20 mg AZD5055 film-coated tablet administered together with 20 mg rabeprazole.
Rabeprazole will continue twice daily, the last dose is on the evening of Study Day 18 (Treatment F).
Safety Variables—Safety endpoints included adverse events (AEs), clinical laboratory assessments (hematology, clinical chemistry, urinalysis, and urinary albumin:creatinine ratios), vital signs and peripheral oxygen saturation (SpO2), standard 12-lead electrocardiogram, (ECG), telemetry, and physical examinations.
All safety data (scheduled and unscheduled) were presented in the data listings. Continuous variables were summarized using descriptive statistics (n, mean, SD, min, median, max) by treatment. Categorical variables were summarized in frequency tables (frequency and proportion) by treatment/dose group. The analysis of the safety variables was based on the safety analysis set.

healthy subjects = assay: Example 1 Part 2 (MAD): safety in healthy subjects; type: in vivo, human
Description: Part 2 comprises a Screening Period of a maximum of 6 weeks. This is followed by a treatment period during which subjects are resident at the Clinical Unit from 1 day before IMP administration (Day −1) until at least 72 hours after the last dose given on Day 16 (Day 19). Subjects are dosed for a total of 15 days and receive a single once daily morning dose of AZD5055 or placebo on Day 1 and on Days 3 through Day 16, with no dosing on Day 2. This is followed up a Follow-up Visit within 6±1 day after the IMP dose, and an additional Follow-up Visit within 29±2 days after the last IMP dose.
For cohorts with QD dosing regimens, the Screening Period is followed by a Treatment Period during which subjects are resident at the Clinical Unit from 1 day before IMP administration (Day −1) until at least 72 hours after the last dose given on Day 16 (Day 19). Subjects are dosed for a total of 15 days, receiving a single QD morning dose of AZD5055 or placebo on Day 1 and on Days 3 through Day 16.
For cohorts with BID dosing regimens, the Screening Period is followed by a Treatment Period during which subjects are resident at the Clinical Unit from 1 day before IMP administration (Day −1) until at least 72 hours after the last dose given on Day 16 (Day 19).
Subjects are dosed for a total of 15 days, receiving a single morning dose of AZD5055 or placebo on Day 1 and Day 16, and repeated BID dosing on Day 3 through Day 15, 12 hours (±30 minutes) apart.
For both cohorts, the Treatment Period is followed by a Follow-up Visit within 6±1 day after the last IMP dose, and an additional Follow-up Visit within 29±2 days after the last IMP dose.
The study was conducted in healthy male and healthy female subjects of non-childbearing potential with suitable veins for cannulation or repeated venipuncture. […] Also, the subjects were aged 18 to 55 years inclusive for men and women in Part 1 and only men in Part 2. For female subjects in Part 2, the age range was 18 to 49 years inclusive.
In Part 1 of the study, 3 dose levels of AZD5055 were investigated in 3 cohorts. Each cohort included 8 subjects. Within each cohort, 6 subjects were randomized to receive AZD5055, and 2 subjects were randomized to receive placebo. In Part 2 of the study, 3 dose levels of AZD5055 were investigated in 3 cohorts. In each cohort, 9 subjects were randomized to receive AZD5055, and 3 subjects were randomized to receive placebo.
Safety endpoints included adverse events; vital signs (supine blood pressure, pulse, respiratory rate, and body temperature); 12-lead ECG, 12-lead dECG, telemetry, physical examinations, clinical laboratory assessments (hematology, clinical chemistry [including serum creatinine and creatine phosphokinase], urinalysis [including protein and albumin creatinine ratios], and cardiac biomarkers [including cardiac Troponin T (cTNT), cardiac Troponin I; (cTNI), and B type natriuretic peptide]), and peripheral oxygen saturation (SpO2).
All safety data (scheduled and unscheduled) were presented in the data listings. Continuous variables were summarized using descriptive statistics (n, mean, standard deviation, min, median, max) by treatment. Categorical variables were summarized in frequency tables (frequency and proportion) by treatment (both Parts 1 and 2). The analysis of the safety variables was based on the safety analysis set. Adverse events were summarized by System Organ Class (SOC) and Preferred Term (PT) using Medical Dictionary for Regulatory Activities vocabulary. Furthermore, listings of serious adverse events (SAEs) and adverse events leading to the discontinuation of IMP (DAEs) were made and the number of subjects who had any adverse events (AEs), SAEs, DAEs and AEs with severe intensity were summarized. Adverse events that occur before dosing were reported separately. Tabulations and listings of data for ECG, vital signs, AEs, and clinical laboratory tests, measurements were presented.

[1] = Part 2, across all AZD5055 doses

SMILES: Cc1cc(-c2nccc3c2ccn3CC(=O)Nc2ccc(-c3cnccn3)cn2)ccn1 [AZD5055, 2-[4-(2-methyl-4-pyridyl)pyrrolo[3,2-c]pyridin-1-yl]-N-(5-pyrazin-2-yl-2-pyridyl)acetamide]
- participants with SAE (transaminases increased), possibly related (healthy participants; Period 3 (tablet, high-fat fed)): One
- AEs leading to discontinuation, events (healthy participants; after dosing in Period 3): 2 events
- participants with AE leading to discontinuation (healthy participants; after dosing in Period 3, transaminases increased and non-cardiac chest pain): Two
- participants with at least 1 AE of Grade 1 intensity (healthy participants; in total): 8 participants
- participants with at least 1 AE of Grade 2 intensity (healthy participants; in total): 4 participants
- AEs Grade 3 or higher (healthy participants; in vivo): No AEs Grade 3 or higher
- deaths (healthy participants; in vivo): no deaths
- laboratory parameters, vital signs, ECGs, physical examination (healthy participants; in vivo): No clinically relevant trends
- AEs possibly related to AZD5055, events (healthy participants; overall): 9 events
- any AE, events (healthy participants; overall): 20 events
- participants with any AE (healthy participants; overall): 11 participants
- participants with any AE possibly related to AZD5055 (healthy participants; overall): Five
- tolerability (healthy participants; single oral and IV doses): generally well tolerated
- tolerability (healthy subjects; 5, 15 and 20 mg QD, oral suspension): well tolerated at all administered doses
- AE intensity, majority of AEs (healthy subjects; Part 2): Grade 1 (mild)
- AEs leading to discontinuation of AZD5055 (healthy subjects; Part 2): 3 AEs
- SAEs or deaths (healthy subjects; Part 2): no SAEs or deaths
- clinical laboratory results, vital signs, physical examinations, ECGs (healthy subjects; Part 2): No clinically relevant trends
- trends for AEs by SOC or PT (healthy subjects; Part 2): no notable trends
- subjects with AE of ventricular tachycardia/non-sustained ventricular tachycardia, Grade 2, possibly related (healthy subjects; Part 2, 5 mg dose): Two
- subjects with AE of coronavirus infection, Grade 1, not considered related (healthy subjects; Part 2, 15 mg dose): One
- AEs possibly related to AZD5055, total (healthy subjects; [1]): 7 AEs
- subjects with an AE of Grade 2 (moderate) intensity (healthy subjects; [1]): 5 subjects
- subjects with at least one AE (healthy subjects; [1]): 21 subjects
- AE outcome (healthy subjects; Part 2, all AEs, by end of study): recovered/resolved by the end of the study
- possibly related AEs: breath odour (healthy subjects; Part 2, number of AEs): 1
- possibly related AEs: dysgeusia (healthy subjects; Part 2, number of AEs): 1
- possibly related AEs: headache (healthy subjects; Part 2, number of AEs): 3
- possibly related AEs: photophobia (healthy subjects; Part 2, number of AEs): 1
- possibly related AEs: ventricular tachycardia (healthy subjects; Part 2, number of AEs): 2

Source: patent publication US20260345593A1, “ORAL FORMULATION OF N-PYRIDINYL ACETAMIDE DERIVATIVE FOR TREATING INTERSTITIAL LUNG DISEASE” (AstraZeneca AB, priority 2022, published 2026)
